# Read-outs that look alike come from different tables or passages of the source.
# Key:
# [1] = in vivo; cited from earlier work
# [2] = in vivo, cited from earlier work
# [3] = cited from earlier work
# [4] = tested on: MPN Cell Lines (JAK2 and non JAK2 populations); test: Efficacy of MPN standard of care drugs tested on cell lines; type: cell-based; details: for sensitive in % of JAK2 Cell line populations: JAK2 cell lines; for resistance in % of non JAK2 population: non JAK2 cell lines
# Excerpt: (§1) Efficacy comparison study of standard of care drugs in MPN Cell Lines and Patients is provided hereunder: […]
# [5] = tested on: MPN patients (JAK2 and non JAK2 populations); test: Efficacy of standard of care drugs on patient cohort; details: for sensitive in % of JAK2 patient populations: JAK2 patients; for resistance in % of non JAK2 patient's population: non JAK2 patients
# Excerpt: as §1
# [6] = tested on: patients with JAK2 aberration, Chromosome 8 / Chromosome 9 aberration; test: Analysis of Ruxolitinib non-responder cases in JAK2 aberration segment (efficacy score, chromosome 8/9 genes)
# Excerpt: Next, screening was done for all patient's resistant to Ruxolitinib (JAKAFI®) but sensitive to the drug combination of CQ+M+S.
# [7] = tested on: Jakafi resistant JAK2 V617F harboring BaF3 cell-line; details: metformin 0.25 mM, 0.5 mM, 1 mM, 5 mM and 10 mM
# Protocol: Relative growth of cells was assessed using MTT assay.
# Viable cells % was assessed using MTT assay.
# Viable cells % was assessed using MTT assay (FIG. 7a).
# [8] = after meal, chloroquine 200 mg morning, metformin 1250 mg morning and evening, rosuvastatin 20 mg evening
Compound,"Headache, All Grades [1]",MTD (maximum tolerated dose) [2],sensitive in % of JAK2 Cell line populations [4],resistance in % of non JAK2 population [4],sensitive in % of JAK2 patient populations [5],resistance in % of non JAK2 patient's population [5],further results
"CC(C)c1nc(N(C)S(C)(=O)=O)nc(-c2ccc(F)cc2)c1/C=C/[C@@H](O)C[C@@H](O)CC(=O)O [Rosuvastatin, rosuvastatin]",8.5%,60 mg/day,–,–,–,–,"Nausea, All Grades [1]: 6.3%; MTD (maximum tolerated dose) ([2]; listed as rosuvastatin): about 60 mg/day; Peak Concentration at Dosage [3, 8]: 0.09 µM"
Nc1ncn([C@@H]2O[C@H](CO)[C@@H](O)[C@H]2O)c(=O)n1 [Azacytidine],–,–,50%,50%,34.16%,74%,–
O=C1CCC(N2C(=O)c3ccccc3C2=O)C(=O)N1 (stereo not shown) [Thalidomide],–,–,75%,16.67%,33.17%,75.61%,–
"CCN(CC)CCCC(C)Nc1ccnc2cc(Cl)ccc12 (stereo not shown) [Chloroquine, chloroquine]",–,600 mg/day,–,–,–,–,"grade ¾ toxicity [1]: rarely reported; MTD (maximum tolerated dose) ([2]; listed as chloroquine): about 600 mg/day; Response ([6]; Gene MCL1, Chromosome 8, Trisomy 8): Inclusion; Peak Concentration at Dosage [3, 8]: 1.18 µM; t½ ([3]; in vivo): 20 to 60 days"
NC(=O)NO [Hydroxyurea],–,–,0%,100%,1%,100%,–
Nc1ncn([C@H]2C[C@H](O)[C@@H](CO)O2)c(=O)n1 [Decitabine],–,–,50%,50%,34.16%,74%,–
Cc1ccc(NC(=O)c2ccc(CN3CCN(C)CC3)cc2)cc1Nc1nccc(-c2cccnc2)n1 [Imatinib],–,–,0%,83.33%,0.5%,100%,–
"CN(C)C(=N)N=C(N)N [Metformin, metformin]",5.7%,2500 mg/day,–,–,–,–,"Diarrhoea, All Grades [1]: 53%; Nausea, All Grades [1]: 25.5%; grade ¾ toxicity [1]: rarely reported; MTD (maximum tolerated dose) ([2]; listed as metformin): about 2500 mg/day; Response ([6]; Gene TGFBR1, Chromosome 9, Trisomy 9): Inclusion; Peak Concentration at Dosage ([3]; in vivo): 5.8 µM; cell viability, viable cells % (MTT) [7]: steady decrease in cell viability"
"N#CC[C@H](C1CCCC1)n1cc(-c2ncnc3[nH]ccc23)cn1 [Ruxolitinib, ruxolitinib]",14.8%,–,75%,83.33%,81.18%,87.81%,"Anemia, All Grades [1]: 96.1%; Neutropenia, All Grades [1]: 18.7%; Thrombocytopenia, All Grades [1]: 69.7%; patients with Anemia of grade 3 or more [1]: 40-45%"
